Assay results reported in ChEMBL document CHEMBL3885861, “Open TG-GATES”.

Species on record: Rattus norvegicus
Test: Open TG-GATES - Regimen: Daily Repeat
Format: toxicity, organism-based, Sprague-Dawley
Design: regimen Daily Repeat, gender Male, age 6 weeks
Conditions: in vivo, po, 60 mg/kg, route gavage, dose level Middle; for APTT / Bas / Eos / Fbg / Hb / Ht / Lym / MCH / MCHC / MCV / Mono / Neu / PT / Plat / RBC / Ret / WBC: tissue Blood; for KIDNEY_L / KIDNEY_R / KIDNEY_TOTAL: tissue Kidney; for LIVER: tissue Liver; for A/G / ALP / ALT / AST / BUN / CRE / Ca / Cl / DBIL / GLC / IP / K / LDH / Na / PL / RALB / TBIL / TC / TG / TP / gamma-GTP: tissue Plasma

Q: What does the source list for `CC(CN1c2ccccc2Sc2ccccc21)N(C)C` (configuration not stated) [PROMETHAZINE]?
A: TERMINAL_BW (72 h, time 3 day): 228.9 g; APTT (72 h, time 3 day): 22.4 s; Bas (72 h, time 3 day): 0%; Eos (72 h, time 3 day): 0.8%; Fbg (72 h, time 3 day): 300.8 mg/dL; Hb (72 h, time 3 day): 13.3 g/dL; Ht (72 h, time 3 day): 40.1%; Lym (72 h, time 3 day): 78.8%; MCH (72 h, time 3 day): 20.8 pg; MCHC (72 h, time 3 day): 33.1%; MCV (72 h, time 3 day): 62.8 fL; Mono (72 h, time 3 day): 2.4%; Neu (72 h, time 3 day): 17%; PT (72 h, time 3 day): 16.1 s; Plat (72 h, time 3 day): 121.6 x10_4/uL; RBC (72 h, time 3 day): 639.4 x10_4/ul; Ret (72 h, time 3 day): 6.1%; WBC (72 h, time 3 day): 113.7 x10_2/uL; KIDNEY_L (72 h, time 3 day): 1 g; KIDNEY_R (72 h, time 3 day): 1 g; KIDNEY_TOTAL (72 h, time 3 day): 2 g; LIVER (72 h, time 3 day): 11.7 g; A/G (72 h, time 3 day): 1.3; ALP (72 h, time 3 day): 1638.6 IU/L; ALT (72 h, time 3 day): 45.8 IU/L; AST (72 h, time 3 day): 74.6 IU/L; BUN (72 h, time 3 day): 16.8 mg/dL; CRE (72 h, time 3 day): 0.2 mg/dL; Ca (72 h, time 3 day): 10.9 mg/dL; Cl (72 h, time 3 day): 106.6 meq/L; DBIL (72 h, time 3 day): 0.002 mg/dL; GLC (72 h, time 3 day): 184.8 mg/dL; IP (72 h, time 3 day): 7 mg/dL; K (72 h, time 3 day): 4.3 meq/L; LDH (72 h, time 3 day): 158.2 IU/L; Na (72 h, time 3 day): 142 meq/L; PL (72 h, time 3 day): 140.8 mg/dL; RALB (72 h, time 3 day): 3.1 g/dL; TBIL (72 h, time 3 day): 0.008 mg/dL; TC (72 h, time 3 day): 73.2 mg/dL; TG (72 h, time 3 day): 122.8 mg/dL; TP (72 h, time 3 day): 5.5 g/dL; gamma-GTP (72 h, time 3 day): 1.4 IU/L; TERMINAL_BW ([…], time 7 day): 255.8 g; TERMINAL_BW ([…], time 14 day): 294.2 g; TERMINAL_BW ([…], time 28 day): 366.5 g; APTT ([…], time 7 day): 23.8 s; Bas ([…], time 7 day): 0%; Eos ([…], time 7 day): 0.8%; Fbg ([…], time 7 day): 293.6 mg/dL; Hb ([…], time 7 day): 13.6 g/dL; Ht ([…], time 7 day): 41.2%; Lym ([…], time 7 day): 80.4%; MCH ([…], time 7 day): 20.2 pg; MCHC ([…], time 7 day): 33.1%; MCV ([…], time 7 day): 61.1 fL; Mono ([…], time 7 day): 2.8%; Neu ([…], time 7 day): 15.2%; PT ([…], time 7 day): 15.8 s; Plat ([…], time 7 day): 107.7 x10_4/uL; RBC ([…], time 7 day): 674.2 x10_4/ul; Ret ([…], time 7 day): 5.1%; WBC ([…], time 7 day): 158 x10_2/uL; APTT ([…], time 14 day): 25 s; Bas ([…], time 14 day): 0%; Eos ([…], time 14 day): 1%; Fbg ([…], time 14 day): 312.6 mg/dL; Hb ([…], time 14 day): 14.2 g/dL; Ht ([…], time 14 day): 41.7%; Lym ([…], time 14 day): 77.8%; MCH ([…], time 14 day): 20.1 pg; MCHC ([…], time 14 day): 34%; MCV ([…], time 14 day): 59.1 fL; Mono ([…], time 14 day): 2%; Neu ([…], time 14 day): 18.4%; PT ([…], time 14 day): 15.6 s; Plat ([…], time 14 day): 111.3 x10_4/uL; RBC ([…], time 14 day): 706.4 x10_4/ul; Ret ([…], time 14 day): 4.8%; WBC ([…], time 14 day): 120.7 x10_2/uL; APTT ([…], time 28 day): 25.7 s; Bas ([…], time 28 day): 0%; Eos ([…], time 28 day): 1%; Fbg ([…], time 28 day): 303.6 mg/dL; Hb ([…], time 28 day): 15.3 g/dL; Ht ([…], time 28 day): 43.8%; Lym ([…], time 28 day): 79.2%; MCH ([…], time 28 day): 19.6 pg; MCHC ([…], time 28 day): 34.9%; MCV ([…], time 28 day): 56.4 fL; Mono ([…], time 28 day): 1.8%; Neu ([…], time 28 day): 17.2%; PT ([…], time 28 day): 16.3 s; Plat ([…], time 28 day): 96 x10_4/uL; RBC ([…], time 28 day): 778.4 x10_4/ul; Ret ([…], time 28 day): 2.9%; WBC ([…], time 28 day): 96 x10_2/uL; KIDNEY_L ([…], time 7 day): 1.1 g; KIDNEY_R ([…], time 7 day): 1.1 g; KIDNEY_TOTAL ([…], time 7 day): 2.2 g; KIDNEY_L ([…], time 14 day): 1.2 g; KIDNEY_R ([…], time 14 day): 1.2 g; KIDNEY_TOTAL ([…], time 14 day): 2.4 g; KIDNEY_L ([…], time 28 day): 1.4 g; KIDNEY_R ([…], time 28 day): 1.4 g; KIDNEY_TOTAL ([…], time 28 day): 2.8 g; LIVER ([…], time 7 day): 13.5 g; LIVER ([…], time 14 day): 14.9 g; LIVER ([…], time 28 day): 17.3 g; A/G ([…], time 7 day): 1.2; ALP ([…], time 7 day): 1458.6 IU/L; ALT ([…], time 7 day): 44 IU/L; AST ([…], time 7 day): 71 IU/L; BUN ([…], time 7 day): 20.6 mg/dL; CRE ([…], time 7 day): 0.2 mg/dL; Ca ([…], time 7 day): 10.7 mg/dL; Cl ([…], time 7 day): 106.2 meq/L; DBIL ([…], time 7 day): 0 mg/dL; GLC ([…], time 7 day): 181.2 mg/dL; IP ([…], time 7 day): 7 mg/dL; K ([…], time 7 day): 4.4 meq/L; LDH ([…], time 7 day): 143.4 IU/L; Na ([…], time 7 day): 141.8 meq/L; PL ([…], time 7 day): 144.4 mg/dL; RALB ([…], time 7 day): 3 g/dL; TBIL ([…], time 7 day): 0.006 mg/dL; TC ([…], time 7 day): 75.4 mg/dL; TG ([…], time 7 day): 106.2 mg/dL; TP ([…], time 7 day): 5.6 g/dL; gamma-GTP ([…], time 7 day): 2.2 IU/L; A/G ([…], time 14 day): 1.2; ALP ([…], time 14 day): 1448 IU/L; ALT ([…], time 14 day): 46.6 IU/L; AST ([…], time 14 day): 72.2 IU/L; BUN ([…], time 14 day): 19 mg/dL; CRE ([…], time 14 day): 0.2 mg/dL; Ca ([…], time 14 day): 10.9 mg/dL; Cl ([…], time 14 day): 106 meq/L; DBIL ([…], time 14 day): 0 mg/dL; GLC ([…], time 14 day): 182.2 mg/dL; IP ([…], time 14 day): 6.9 mg/dL; K ([…], time 14 day): 4.1 meq/L; LDH ([…], time 14 day): 128.4 IU/L; Na ([…], time 14 day): 142.4 meq/L; PL ([…], time 14 day): 150.4 mg/dL; RALB ([…], time 14 day): 3.2 g/dL; TBIL ([…], time 14 day): 0.012 mg/dL; TC ([…], time 14 day): 76 mg/dL; TG ([…], time 14 day): 128.4 mg/dL; TP ([…], time 14 day): 5.9 g/dL; gamma-GTP ([…], time 14 day): 2.4 IU/L; A/G ([…], time 28 day): 1.1; ALP ([…], time 28 day): 1017.8 IU/L; ALT ([…], time 28 day): 49.4 IU/L; AST ([…], time 28 day): 69 IU/L; BUN ([…], time 28 day): 18.8 mg/dL; CRE ([…], time 28 day): 0.2 mg/dL; Ca ([…], time 28 day): 10.8 mg/dL; Cl ([…], time 28 day): 104 meq/L; DBIL ([…], time 28 day): 0 mg/dL; GLC ([…], time 28 day): 185.6 mg/dL; IP ([…], time 28 day): 7 mg/dL; K ([…], time 28 day): 3.7 meq/L; LDH ([…], time 28 day): 158 IU/L; Na ([…], time 28 day): 143.2 meq/L; PL ([…], time 28 day): 152.4 mg/dL; RALB ([…], time 28 day): 3.3 g/dL; TBIL ([…], time 28 day): 0.026 mg/dL; TC ([…], time 28 day): 79 mg/dL; TG ([…], time 28 day): 105.2 mg/dL; TP ([…], time 28 day): 6.3 g/dL; gamma-GTP ([…], time 28 day): 2.2 IU/L
